The series can be described thus: Log P by HPLC on reversed phase columns (EEC directive 79/831 Annex V.A8). Type of series: physicochemical. The procedure, abridged:
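Reversed-phase HPLC per EEC 79/831 Annex V.A8, LC-UV with 10→95% acetonitrile linear gradient; eluent [a] 0.1% formic acid (acidic), [b] 0.001 M ammonium acetate (neutral), [c] 0.1% phosphoric acid (acidic). Calibrated with C3–C16 straight-chain alkan-2-ones, linear interpolation of retention times; multiple values joined by "+".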

Consider 87 molecules from US12642270B2, “Substituted thiophene carboxamides, thiophene carboxylic acids and derivatives thereof” (Bayer Aktiengesellschaft, priority 2019, dated 2026).

Regarding `CCCOC(=O)C1(NC(=O)c2sc(Cl)c(Br)c2Br)CC1` [1.0593], the LogP (method [a]) was 3.98^[a].
On the same count and under the same terms, with `O=C(NC1(C(=O)OC2CCC2)CC1)c1sc(Cl)c(Br)c1Br` [1.0594] the figure was 4.20^[a]; with `COC(=O)C1(NC(=O)c2sc(Cl)c(Br)c2Cl)CC1` [1.0595], 3.11^[a].
On the same count and under the same terms, in the case of `CCCOC(=O)C1(NC(=O)c2sc(Cl)c(Br)c2Cl)CC1` [1.0596] it was 3.98^[a].
Still for that read-out and setting: in the case of `O=C(NC1(C(=O)OC2CCC2)CC1)c1sc(Cl)c(Br)c1Cl` [1.0597] it was 4.15^[a]; in that of `CCCOC(=O)C1(NC(=O)c2cc(Cl)c(Br)s2)CC1` [1.0598], 3.28^[a].
For `O=C(NC1(C(=O)OC2CCC2)CC1)c1cc(Cl)c(Br)s1` [1.0599], for the setting “method [a]”, the LogP was 3.43^[a].
Still for that read-out and setting: with `COC(=O)C1(NC(=O)c2sc(Cl)c(Br)c2C#N)CC1` [1.0600] the figure was 2.36^[a]; with `CCCOC(=O)C1(NC(=O)c2cc(Br)c(Cl)s2)CC1` [1.0601], 3.43^[a].
Same read-out and setting: in the case of `COC(=O)C1(NC(=O)c2sc(C#N)c(Br)c2Cl)CC1` [1.0602] it was 2.44^[a]; in that of `COC(=O)C1(NC(=O)c2sc(Cl)c(Br)c2F)CC1` [1.0603], 2.70^[a]; in that of `CCOC(=O)CNC(=O)c1sc(C#N)c(Br)c1Cl` [1.0604], 2.63^[a].
Take `COC(=O)CNC(=O)c1sc(C#N)c(Br)c1Cl` [1.0605]: the LogP (method [a]) was 2.24^[a].
Same read-out and setting: in the case of `CCOC(=O)C1(NC(=O)c2sc(C#N)c(Br)c2Cl)CC1` [1.0606] it was 2.79^[a].
On the same count and under the same terms, in the case of `O=C(NC1(C(=O)OC2CCC2)CC1)c1cc(Br)c(Cl)s1` [1.0607] it was 3.46^[a]; in that of `COC(=O)C(C)(C)NC(=O)c1sc(Cl)c(Br)c1C#N` [1.0608], 2.77^[a].
The same measure, in the same setting: with `CCOC(=O)C(NC(=O)c1sc(Cl)c(Br)c1C#N)C(C)C` (stereo not drawn) [1.0609] the figure was 3.81^[a]; with `COC(=O)C(NC(=O)c1sc(Cl)c(Br)c1C#N)C1CC1` (stereo not drawn) [1.0610], 2.93^[a].
As for `CC(C)OC(=O)C1(NC(=O)c2sc(Cl)c(Cl)c2Br)CCC1` [1.0611], the LogP (method [a]) was 4.69^[a].
The same measure, in the same setting: in the case of `COC(=O)C1(NC(=O)c2sc(Cl)c(Cl)c2Br)CC(C)(C)C1` [1.0612] it was 4.50^[a]; in that of `COC(=O)C1(NC(=O)c2sc(Cl)c(Cl)c2Br)CCC1` [1.0613], 3.67^[a]; in that of `CC(C)(C)OC(=O)C1(NC(=O)c2sc(Cl)c(Cl)c2Br)CC(F)(F)C1` [1.0614], 4.83^[a].
On the same count and under the same terms, in the case of `O=C(NC(C(=O)OCc1ccccc1)C1CC1)c1sc(Br)c(Br)c1Cl` (stereo not drawn) [1.0615] it was 5.07^[a].
Same read-out and setting: in the case of `CC(C)OC(=O)C1(NC(=O)c2sc(Br)c(Br)c2Cl)CCC1` [1.0616] it was 4.71^[a]; in that of `O=C(NC(C(=O)OCc1ccccc1)C1CC1)c1sc(Cl)c(Cl)c1Br` (stereo not drawn) [1.0617], 5.10^[a].
With `COC(=O)C1(NC(=O)c2sc(Br)c(Br)c2Cl)CC(C)(C)C1` [1.0618], the LogP (method [a]) is 4.52^[a].
Still for that read-out and setting: with `O=C(NC(C(=O)OCc1ccccc1)C1CC1)c1sc(Br)c(Br)c1F` (stereo not drawn) [1.0619] the figure was 4.63^[a].
On the same count and under the same terms, in the case of `CC(C)OC(=O)C1(NC(=O)c2sc(Br)c(Br)c2F)CCC1` [1.0620] it was 4.23^[a]; in that of `COC(=O)C1(NC(=O)c2sc(Br)c(Br)c2F)CC(C)(C)C1` [1.0621], 4.12^[a]; in that of `COC(=O)C1(NC(=O)c2sc(Br)c(Br)c2F)CC(F)(F)C1` [1.0622], 3.37^[a].
As for `CC(C)(C)OC(=O)C1(NC(=O)c2sc(Br)c(Br)c2F)CC(F)(F)C1` [1.0623], for the setting “method [a]”, the LogP is 4.46^[a].
Same read-out and setting: with `COC(=O)C1(NC(=O)c2sc(Br)c(Br)c2Cl)CC(F)(F)C1` [1.0624] the figure was 3.69^[a].
Regarding `CCCOC(=O)C1(NC(=O)c2sc(Cl)c(Br)c2C)CC1` [1.0625], for the setting “method [a]”, the LogP was 3.62^[a].
Still for that read-out and setting: with `NC(=O)CNC(=O)c1sc(Cl)c(Cl)c1Br` [1.0626] the figure was 1.98^[a].
Same read-out and setting: with `COC(=O)C(C)(C)NC(=O)c1sc(Br)c(C(F)F)c1Br` [1.0627] the figure was 3.22^[a]; with `CCOC(=O)C(Cc1ccccc1)NC(=O)c1sc(Cl)c(Br)c1C#N` (stereo not drawn) [1.0628], 4.00^[a].
On the same count and under the same terms, in the case of `COC(=O)C1(NC(=O)c2sc(Cl)c(Br)c2C#N)CCC1` [1.0629] it was 2.82^[a].
Turning to `CCOC(=O)C1(NC(=O)c2sc(Cl)c(Br)c2C#N)CCC1` [1.0630], the LogP (method [a]) is 3.20^[a].
The same measure, in the same setting: with `CCCOC(=O)C1(NC(=O)c2sc(Cl)c(Br)c2C#N)CC1` [1.0631] the figure was 3.06^[a]; with `N#Cc1c(C(=O)NC2(C(=O)OC3CCC3)CC2)sc(Cl)c1Br` [1.0632], 3.21^[a].
Same read-out and setting: in the case of `N#CCNC(=O)c1sc(Cl)c(Br)c1C#N` [1.0633] it was 2.07^[a].
The same measure, in the same setting: in the case of `CCOC(=O)CNC(=O)c1sc(Cl)c(Br)c1F` [1.0634] it was 2.88^[a].
For `COC(=O)CNC(=O)c1sc(Cl)c(Br)c1F` [1.0635], the LogP (method [a]) is 2.49^[a].
The same measure, in the same setting: with `CCOC(=O)C1(NC(=O)c2sc(Cl)c(Br)c2F)CC1` [1.0636] the figure was 3.10^[a]; with `COC(=O)C(C)(C)NC(=O)c1sc(Cl)c(Br)c1F` [1.0637], 3.27^[a]; with `NC(=O)CNC(=O)c1sc(Br)c(Br)c1Cl` [1.0638], 1.98^[a].
On the same count and under the same terms, in the case of `CCOC(=O)C(NC(=O)c1sc(Cl)c(Br)c1F)C(C)C` (stereo not drawn) [1.0639] it was 4.40^[a]; in that of `CCOC(=O)C(Cc1ccccc1)NC(=O)c1sc(Cl)c(Br)c1F` (stereo not drawn) [1.0640], 4.50^[a]; in that of `COC(=O)C1(NC(=O)c2sc(Cl)c(Br)c2F)CCC1` [1.0641], 3.29^[a].
The same measure, in the same setting: with `CCOC(=O)C1(NC(=O)c2sc(Cl)c(Br)c2F)CCC1` [1.0642] the figure was 3.75^[a]; with `CCCOC(=O)C1(NC(=O)c2sc(Cl)c(Br)c2F)CC1` [1.0643], 3.52^[a].
Turning to `O=C(NC1(C(=O)OC2CCC2)CC1)c1sc(Cl)c(Br)c1F` [1.0644], the LogP (method [a]) is 3.69^[a].
On to `N#CCNC(=O)c1sc(Cl)c(Br)c1F` [1.0645], for which, for the setting “method [a]”, the LogP is 2.36^[a].
In the case of `CCOC(=O)CNC(=O)c1sc(Br)c(C(F)F)c1Br` [1.0646], the LogP (method [a]) is 2.92^[a].
On the same count and under the same terms, with `COC(=O)CNC(=O)c1sc(Br)c(C(F)F)c1Br` [1.0647] the figure was 2.56^[a].
Same read-out and setting: with `CCOC(=O)C1(NC(=O)c2sc(Br)c(C(F)F)c2Br)CC1` [1.0648] the figure was 3.05^[a]; with `COC(=O)C1(NC(=O)c2sc(Br)c(C(F)F)c2Br)CC1` [1.0649], 2.70^[a]; with `COC(=O)C(NC(=O)c1sc(Cl)c(Br)c1F)C1CC1` (stereo not drawn) [1.0650], 3.41^[a].
Still for that read-out and setting: in the case of `Cc1c(C(=O)NC2(C(=O)OC3CCC3)CC2)sc(Br)c1Cl` [1.0651] it was 3.78^[a].
With `N#CCNC(=O)c1sc(Br)c(C#N)c1Cl` [1.0652], where the note is “method [a]”, the LogP was 2.03^[a].
Same read-out and setting: with `CCOC(=O)CNC(=O)c1sc(Cl)c(C#N)c1Br` [1.0653] the figure was 2.58^[a].
`COC(=O)CNC(=O)c1sc(Cl)c(C#N)c1Br` [1.0654]: the LogP (method [a]) was 2.21^[a].
Regarding `CCOC(=O)C1(NC(=O)c2sc(Cl)c(C#N)c2Br)CC1` [1.0655], the LogP (method [a]) was 2.69^[a].
On the same count and under the same terms, in the case of `COC(=O)C1(NC(=O)c2sc(Cl)c(C#N)c2Br)CC1` [1.0656] it was 2.34^[a].
On the same count and under the same terms, with `COC(=O)C(C)(C)NC(=O)c1sc(Cl)c(C#N)c1Br` [1.0657] the figure was 2.83^[a].
Consider `CCOC(=O)C(NC(=O)c1sc(Cl)c(C#N)c1Br)C(C)C` (stereo not drawn) [1.0658], for which the LogP (method marked [a]) is 3.83^[a].
Still for that read-out and setting: with `COC(=O)C(NC(=O)c1sc(Cl)c(C#N)c1Br)C1CC1` (stereo not drawn) [1.0659] the figure was 3.00^[a].
The same measure, in the same setting: with `CCOC(=O)C(Cc1ccccc1)NC(=O)c1sc(Cl)c(C#N)c1Br` (stereo not drawn) [1.0660] the figure was 4.09^[a].
On the same count and under the same terms, in the case of `COC(=O)C1(NC(=O)c2sc(Cl)c(C#N)c2Br)CCC1` [1.0661] it was 2.87^[a]; in that of `CCOC(=O)C1(NC(=O)c2sc(Cl)c(C#N)c2Br)CCC1` [1.0662], 3.28^[a]; in that of `N#CCNC(=O)c1sc(Cl)c(C#N)c1Br` [1.0663], 2.03^[a].
`CCOC(=O)CNC(=O)c1sc(C#N)c(Cl)c1Br` [1.0664]: under “method marked [a]”, the LogP is 2.64^[a].
On the same count and under the same terms, in the case of `COC(=O)CNC(=O)c1sc(C#N)c(Cl)c1Br` [1.0665] it was 2.25^[a].
In the case of `CCOC(=O)C1(NC(=O)c2sc(C#N)c(Cl)c2Br)CC1` [1.0666], where the note is “method marked [a]”, the LogP is 2.76^[a].
On the same count and under the same terms, in the case of `COC(=O)C1(NC(=O)c2sc(C#N)c(Cl)c2Br)CC1` [1.0667] it was 2.42^[a]; in that of `COC(=O)C(C)(C)NC(=O)c1sc(C#N)c(Cl)c1Br` [1.0668], 2.90^[a]; in that of `CCOC(=O)C(NC(=O)c1sc(C#N)c(Cl)c1Br)C(C)C` (stereo not drawn) [1.0669], 3.90^[a].
Same read-out and setting: in the case of `COC(=O)C(NC(=O)c1sc(C#N)c(Cl)c1Br)C1CC1` (stereo not drawn) [1.0670] it was 3.07^[a]; in that of `CCOC(=O)C(Cc1ccccc1)NC(=O)c1sc(C#N)c(Cl)c1Br` (stereo not drawn) [1.0671], 4.14^[a].
In the case of `COC(=O)C1(NC(=O)c2sc(C#N)c(Cl)c2Br)CCC1` [1.0672], for the setting “method marked [a]”, the LogP is 2.96^[a].
On the same count and under the same terms, with `CCOC(=O)C1(NC(=O)c2sc(Br)c(C#N)c2Cl)CCC1` [1.0673] the figure was 3.30^[a]; with `COC(=O)C1(NC(=O)c2sc(Br)c(C#N)c2Cl)CCC1` [1.0674], 2.89^[a].
The same measure, in the same setting: with `CCOC(=O)C(Cc1ccccc1)NC(=O)c1sc(Br)c(C#N)c1Cl` (stereo not drawn) [1.0675] the figure was 4.06^[a].
Take `COC(=O)C(NC(=O)c1sc(Br)c(C#N)c1Cl)C1CC1` (stereo not drawn) [1.0676]: where the note is “method marked [a]”, the LogP was 2.99^[a].
The same measure, in the same setting: with `O=C(CNC(=O)c1sc(Br)c(Br)c1Cl)OC1CCOC1` (stereo not drawn) [1.0677] the figure was 2.84^[a].
As for `O=C(CNC(=O)c1sc(Br)c(Br)c1F)OC1CCOC1` (stereo not drawn) [1.0678], the LogP (method marked [a]) is 2.53^[a].
Still for that read-out and setting: in the case of `Cc1c(C(=O)NCC(=O)OC2CCOC2)sc(C#N)c1Br` (stereo not drawn) [1.0679] it was 2.12^[a].
